Measurements as given in patent publication US10375956B2, “Herbicidally active 2-(substituted-phenyl)-cyclopentane-1,3-dione compounds and derivatives thereof” (Syngenta Limited, priority 2013, dated 2019).

Key:
Assay in all cases: Test 2 glasshouse assay (IF50 formulation, X-77), post-emergence herbicidal activity
Type in all cases: in vivo
[1] = test system: Brassica napus (BRSNN, rape); conditions: 360 h, 15 DAA, visual score, read-out: Post-emergence herbicidal activity (percentage phytotoxicity) BRSNN; for plant injury at 30 g/ha: application rate 30 g/ha; for plant injury at 125 g/ha: application rate 125 g/ha
Summary of the method: (§1)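 Plants grown ~12 days (range 10-13) in glasshouse (cool species 20/16° C., warm 24/18° C. day/night; 16 h light; 65% humidity), then sprayed post-emergence with IF50 formulation in aqueous 0.2% v/v X-77. Visual percentage phytotoxicity scored 15 days after application (100% = total damage, 0% = none).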

[2] = test system: Triticum aestivum (TRZAW, winter wheat); conditions: 360 h, 15 DAA, read-out: Post-emergence herbicidal activity (percentage phytotoxicity) TRZAW; for plant injury at 30 g/ha: application rate 30 g/ha; for plant injury at 30 g/ha / plant injury at 125 g/ha: visual score; for plant injury at 125 g/ha: application rate 125 g/ha
Summary of the method: as §1

[3] = test system: Beta vulgaris (BEAVA, sugarbeet); conditions: 360 h, 15 DAA, visual score, read-out: Post-emergence herbicidal activity (percentage phytotoxicity) BEAVA; for plant injury at 30 g/ha: application rate 30 g/ha; for plant injury at 125 g/ha: application rate 125 g/ha
Summary of the method: as §1

[4] = test system: Glycine max (GLXMA, soybean); conditions: 360 h, 15 DAA, visual score, read-out: Post-emergence herbicidal activity (percentage phytotoxicity) GLXMA; for plant injury at 30 g/ha: application rate 30 g/ha; for plant injury at 125 g/ha: application rate 125 g/ha
Summary of the method: as §1

[5] = test system: Sorghum vulgare Pers. (SORVU); conditions: Sorghum bicolor, 360 h, 15 DAA, visual score, read-out: Post-emergence herbicidal activity (percentage phytotoxicity) SORVU; for pest or weed control at 30 g/ha: application rate 30 g/ha; for pest or weed control at 125 g/ha: application rate 125 g/ha
Summary of the method: (§2)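 Test plants were sown in pots of standard soil and cultivated for one day (pre-emergence) or about 12 days (post-emergence) under controlled glasshouse conditions. An aqueous spray with IF50 and 0.2% v/v X-77 was then applied. Damage was rated visually as percentage phytotoxicity 20 days (pre) or 15 days (post) later.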

[6] = test system: Panicum miliaceum (PANMI); conditions: 360 h, 15 DAA, visual score, read-out: Post-emergence herbicidal activity (percentage phytotoxicity) PANMI; for pest or weed control at 30 g/ha: application rate 30 g/ha; for pest or weed control at 125 g/ha: application rate 125 g/ha
Summary of the method: as §2

[7] = test system: Brachiaria plantaginea (BRAPL); conditions: Urochloa plantaginea, 360 h, 15 DAA, visual score, read-out: Post-emergence herbicidal activity (percentage phytotoxicity) BRAPL; for pest or weed control at 30 g/ha: application rate 30 g/ha; for pest or weed control at 125 g/ha: application rate 125 g/ha
Summary of the method: as §2

[8] = test system: Setaria faberi (SETFA); conditions: 360 h, 15 DAA, visual score, read-out: Post-emergence herbicidal activity (percentage phytotoxicity) SETFA; for pest or weed control at 30 g/ha: application rate 30 g/ha; for pest or weed control at 125 g/ha: application rate 125 g/ha
Summary of the method: as §2

[9] = test system: Echinochloa crus-galli (ECHCG); conditions: 360 h, 15 DAA, visual score, read-out: Post-emergence herbicidal activity (percentage phytotoxicity) ECHCG; for pest or weed control at 30 g/ha: application rate 30 g/ha; for pest or weed control at 125 g/ha: application rate 125 g/ha
Summary of the method: as §2

[10] = test system: Digitaria sanguinalis (DIGSA); conditions: 360 h, 15 DAA, visual score, read-out: Post-emergence herbicidal activity (percentage phytotoxicity) DIGSA; for pest or weed control at 30 g/ha: application rate 30 g/ha; for pest or weed control at 125 g/ha: application rate 125 g/ha
Summary of the method: as §2

[11] = test system: Lolium perenne (LOLPE); conditions: 360 h, 15 DAA, visual score, read-out: Post-emergence herbicidal activity (percentage phytotoxicity) LOLPE; for pest or weed control at 30 g/ha: application rate 30 g/ha; for pest or weed control at 125 g/ha: application rate 125 g/ha
Summary of the method: (§3)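 Plants in soil pots were sprayed 1 day (pre-emergence) or ~12 days (post-emergence) after sowing with IF50 formulation diluted in 0.2% v/v X-77. Cool species were grown at 20/16 °C day/night, 16 h light, 65% humidity. Visual % phytotoxicity was scored at 20DAA (pre) or 15DAA (post).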

[12] = test system: Alopecurus myosuroides (ALOMY); conditions: 360 h, 15 DAA, visual score, read-out: Post-emergence herbicidal activity (percentage phytotoxicity) ALOMY; for pest or weed control at 30 g/ha: application rate 30 g/ha; for pest or weed control at 125 g/ha: application rate 125 g/ha
Summary of the method: as §3

[13] = test system: Avena fatua (AVEFA); conditions: 360 h, 15 DAA, visual score, read-out: Post-emergence herbicidal activity (percentage phytotoxicity) AVEFA; for pest or weed control at 30 g/ha: application rate 30 g/ha; for pest or weed control at 125 g/ha: application rate 125 g/ha
Summary of the method: as §3

| Compound | plant injury at 30 g/ha [1] | plant injury at 125 g/ha [1] | plant injury at 30 g/ha [2] | plant injury at 125 g/ha [2] | plant injury at 30 g/ha [3] | plant injury at 125 g/ha [3] | plant injury at 30 g/ha [4] | plant injury at 125 g/ha [4] | pest or weed control at 30 g/ha [5] | pest or weed control at 125 g/ha [5] | pest or weed control at 30 g/ha [6] | pest or weed control at 125 g/ha [6] | pest or weed control at 30 g/ha [7] | pest or weed control at 125 g/ha [7] | pest or weed control at 125 g/ha [8] | pest or weed control at 125 g/ha [9] | pest or weed control at 125 g/ha [10] | pest or weed control at 125 g/ha [11] | pest or weed control at 125 g/ha [12] | pest or weed control at 125 g/ha [13] | further results |
| --- | --- | --- | --- | --- | --- | --- | --- | --- | --- | --- | --- | --- | --- | --- | --- | --- | --- | --- | --- | --- | --- |
| C#CCC1CC(=O)C(c2c(F)cc(-c3ccc(F)c(F)c3)cc2OC)C1=O (stereo not drawn) [Compound A22] | 50% | 70% | 20% | 70% | 0% | 0% | 0% | 40% | 70% | 100% | 60% | 100% | 90% | 100% | 100% | 100% | 100% | 50% | 70% | 70% | pest or weed control at 30 g/ha [8]: 80%; pest or weed control at 30 g/ha [9]: 70%; pest or weed control at 30 g/ha [10]: 70%; pest or weed control at 30 g/ha [11]: 10%; pest or weed control at 30 g/ha [12]: 50%; pest or weed control at 30 g/ha [13]: 0% |
| C#CCC1CC(=O)C(c2c(CC)cc(C)cc2CC)C1=O (stereo not drawn) [Compound A25, 2-(2,6-diethyl-4-methyl-phenyl)-4-(prop-2-ynyl)-cyclopentane-1,3-dione] | 0% | 20% | 10% | 60% | 0% | 0% | 0% | 0% | 100% | 100% | 100% | 100% | 100% | 100% | 100% | 100% | 100% | 100% | 80% | 100% | pest or weed control at 30 g/ha [8]: 90%; pest or weed control at 30 g/ha [9]: 100%; pest or weed control at 30 g/ha [10]: 100%; pest or weed control at 30 g/ha [11]: 90%; pest or weed control at 30 g/ha [12]: 50%; pest or weed control at 30 g/ha [13]: 80% |
| C#CCC1C(=O)C(c2c(C)cc(C)cc2C)C(=O)C1CC#C (stereo not drawn) [Compound A42] |  | 20% |  | 0% |  | 0% |  | 10% |  | 80% |  | 100% |  | 100% | 90% | 100% | 90% | 80% | 50% | 0% | plant injury at 500 g/ha ([1]; application rate 500 g/ha): 80%; plant injury at 500 g/ha ([2]; application rate 500 g/ha, visual score 100%=total damage, 0%=no damage): 10%; plant injury at 500 g/ha ([3]; application rate 500 g/ha): 30%; plant injury at 500 g/ha ([4]; application rate 500 g/ha): 10%; pest or weed control at 500 g/ha ([5]; application rate 500 g/ha): 100%; pest or weed control at 500 g/ha ([6]; application rate 500 g/ha): 100%; pest or weed control at 500 g/ha ([7]; application rate 500 g/ha): 100%; pest or weed control at 500 g/ha ([8]; application rate 500 g/ha): 100%; pest or weed control at 500 g/ha ([9]; application rate 500 g/ha): 100%; pest or weed control at 500 g/ha ([10]; application rate 500 g/ha): 100%; pest or weed control at 500 g/ha ([11]; application rate 500 g/ha): 100%; pest or weed control at 500 g/ha ([12]; application rate 500 g/ha): 70%; pest or weed control at 500 g/ha ([13]; application rate 500 g/ha): 50% |
